Patent US20250034171A1, “IMIDAZOPYRIDINE AMIDES AND RELATED COMPOUNDS FOR USE IN THE TREATMENT OF BACTERIAL INFECTIONS” (priority 2021, published 2025)
In brackets after ≈: the same amount, converted by molar mass. Like-named read-outs stand apart in the source and are kept apart here.

Key:
[1] = test system: Mycobacterium tuberculosis strain H37Rv; test: Test 2: MIC determination against M. tuberculosis, resazurin fluorescence; assay type: cell-based; details: Test 2, M. tuberculosis H37Rv; for MIC90: read-out: Bacterial activity MIC90; for IC50: read-out: Bacterial activity pMIC50 (converted)
[2] = Metabolic stability in liver microsomes (intrinsic clearance); assay type: in vitro ADME
Description: The test compound was incubated under the generic condition (0.5 mg/ml microsomal protein, 1 mM NADPH, 1 mM MgCl2, and 0.1 M phosphate buffer, pH 7.4, 37° C.) at a defined substrate concentration (typically 1 μM) in liver microsomes of selected species across a time course (typically 0, 5, 10, 20, 40 and 60 minutes) at Cyprotex (Cheshire, UK). The liver microsomes, buffer and test compound will be pre-incubated for 5 minutes. The addition of the co-factor NADPH will initiate the reaction and the reaction was terminated by addition of acetonitrile. The samples were centrifuged prior to analysis by LC-MS/MS analysis. The relative amount of parent compound remaining in the active incubations vs. the control incubations (t=0 mins) for each compound was measured by peak area comparison. The in vitro metabolic half-life (t1/2) was calculated using the slope of the log-linear regression from the percentage parent compound remaining versus time relationship (κ), The in vitro intrinsic clearance (Cl^int) (μl/min/mg microsomal protein) was calculated using the in vitro metabolic half-life, incubation volume and the weight of microsomal protein in the incubation.

[3] = test system: Salmonella typhimurium Ames II Mixed Strains (TA7001-TA7006) and TA98; test: Genotoxicity assay (AmesIIb mutagenicity test); assay type: cell-based; note: key: an AmesIIb score of 1 shows no genotoxicity signals
Text: The aim is to evaluate compounds (and/or their metabolites) for their ability to induce reverse mutations in a gene of histidine-requiring Salmonella typhimurium strains to produce histidine-independent strains of these bacteria, in the absence and in the presence of a mammalian metabolic activation system.
Point mutations were made in the histidine (His) operon in Salmonella typhimurium, rendering the bacteria incapable of producing histidine. These single base substitutions are positioned at strategic points within the His gene, resulting in his-organisms that cannot grow unless histidine is supplied. When a mutagenic event occurs, base substitutions within the His gene then cause the reversion of the his-Ames II™ strains to His.
A chemical's mutagenic potential is assessed by exposing these his-organisms to varying concentrations of chemical and selecting for the reversion event. Medium lacking histidine is used for this selection which allows only those cells that have undergone the his- to His reversion to survive and grow.
The assay may be performed using a kit and instructions from Xenometric. The two strains provided in the Xenometric kit are the Ames II™ Mixed Strains and TA98. The Ames II™ Mixed Strains contains an equimolar mixture of the Ames II™ TA7001-TA7006 strains. Individually, these strains are designed to revert by only one specific base-pair substitution out of six possible changes. Thus, when mixed, all six base substitution mutations can be represented in one culture. This kit also contains TA98 for the detection of frameshift mutations.

[4] = Mycobacterium tuberculosis, H37RV
[5] = mouse, microsomes, pH 7.4, Metabolic Stability Half life (mouse, min.)
[6] = mouse, microsomes, pH 7.4, mouse liver microsomes, read-out: Metabolic Stability (liver microsome intrinsic clearance) Clearance (mouse, μl/min./mg protein)
[7] = human, microsomes, pH 7.4, Metabolic Stability Half life (human, min.)
[8] = human, microsomes, pH 7.4, human liver microsomes, read-out: Metabolic Stability (liver microsome intrinsic clearance) Clearance (human, μl/min./mg protein)

SMILES	MIC90 [1, 4]	IC50 [1, 4]	half-life at 1 µM [2, 5]	microsomal CLint at 1 µM [2, 6]	GeneTox AmesIIb Score ([3]; Salmonella typhimurium)	also measured
CCc1nc2nc(C)ccn2c1C(=O)NCc1ccc(-c2nc3n(n2)CCC(C(F)(F)F)C3)cc1 (centres unmarked) [Compound 5b]						Bacterial activity pMIC50 [1]: 7.873; MIC90 [1]: 0.044 µM (≈ 0.0213 µg/mL); Metabolic Stability (liver microsome intrinsic clearance) Clearance (mouse, μl/min./mg protein) ([2]; mouse, microsomes): <7.7 μl/min./mg protein; Metabolic Stability Half life (mouse, min.) ([2]; mouse, microsomes): >3 h; GeneTox AmesIIb Score [3]: 1
CCc1nc2ncc(C)cn2c1C(=O)NCc1ccc(-c2nc3n(n2)CCC(C(F)(F)F)C3)c(C)n1 (centres unmarked) [Compound 37]	0.0035 µM (≈ 0.00174 µg/mL)	12600 pM	> 2.8 h	< 7.7 µL/min/mg	1	
CCc1nc2ncc(C)cn2c1C(=O)NCc1cc(C)c(-c2nc3n(n2)CCC(C(F)(F)F)C3)cn1 (centres unmarked) [Compound 38]	0.052 µM (≈ 0.0259 µg/mL)	17000 pM	> 3 h	< 7.7 µL/min/mg	1	
CCc1nc2ncc(C)cn2c1C(=O)NCc1ccc(-c2nc3n(n2)CCC(C(F)(F)F)C3)cn1 (centres unmarked) [Compound 39]	0.16 µM (≈ 0.0775 µg/mL)	49000 pM	> 3 h	< 7.7 µL/min/mg	1	
CCc1nc2ccc(F)cn2c1C(=O)NCc1ccc(-c2nc3n(n2)CC[C@H](C(F)(F)F)C3)cc1 [Compound 50]	0.11 µM (≈ 0.0535 µg/mL)	28200 pM	1.97 h	11.7 µL/min/mg	1	
[2H]C([2H])([2H])c1cnc2nc(CC)c(C(=O)NCc3ccc(-c4nc5n(n4)CC[C@H](C(F)(F)F)C5)cc3)n2c1 [Compound 51]	0.008 µM (≈ 0.00389 µg/mL)	3160 pM	> 3 h	< 7.7 µL/min/mg	1	
CCc1cnc2nc(CC)c(C(=O)NCc3ccc(-c4nc5n(n4)CC[C@@H](C(F)(F)F)C5)cc3)n2c1 [Compound 59]	0.061 µM (≈ 0.0303 µg/mL)	17800 pM	0.39 h	59.4 µL/min/mg	1	half-life at 1 µM [2, 7]: 0.0667 h; microsomal CLint at 1 µM [2, 8]: 347 µL/min/mg
CCc1cnc2nc(CC)c(C(=O)NCc3ccc(-c4nc5n(n4)CC[C@H](C(F)(F)F)C5)cc3)n2c1 [Compound 62]	0.033 µM (≈ 0.0164 µg/mL)	11000 pM	0.4 h	57.8 µL/min/mg	1	half-life at 1 µM [2, 7]: 0.0783 h; microsomal CLint at 1 µM [2, 8]: 294 µL/min/mg
CCc1nc2ncc(C)cn2c1C(=O)NCc1ccc(-c2cn3c(n2)CC(C)CC3)cc1 (centres unmarked) [Compound 89]	0.046 µM (≈ 0.0197 µg/mL)	14100 pM	> 3 h	< 7.7 µL/min/mg	1	
CCc1nc2nc(C)ccn2c1C(=O)NCc1ccc(-c2cn3c(n2)CC(C)CC3)cc1 (centres unmarked) [Compound 91]	0.48 µM (≈ 0.206 µg/mL)	191000 pM	> 3 h	< 7.7 µL/min/mg	1	
CCc1nc2ncc(C)cn2c1C(=O)NCc1ccc(-c2cc3n(n2)CCCC3)cc1 [Compound 95]	0.011 µM (≈ 0.00456 µg/mL)	3630 pM	0.978 h	0.012 µL/min/mg	1	half-life at 1 µM [2, 7]: > 9.33 h; microsomal CLint at 1 µM [2, 8]: < 1.2 µL/min/mg
CCc1nc2ncc(C)cn2c1C(=O)NCc1ccc(-c2nc3n(n2)CCC(COC)C3)cc1 (centres unmarked) [Compound 102]	0.058 µM (≈ 0.0267 µg/mL)	25700 pM	> 3 h	< 7.7 µL/min/mg	1	
CCc1nc2ncc(C)cn2c1C(=O)NCc1ccc(-c2nc3n(n2)CCC(C(C)(F)F)C3)c(F)c1 (centres unmarked) [Compound 106]	0.03 µM (≈ 0.0149 µg/mL)	12000 pM	1.92 h	12.1 µL/min/mg	1	
CCc1nc2cc(F)ccn2c1C(=O)NCc1ccc(-c2nc3n(n2)CCCC3)cc1 [Compound 120]	0.042 µM (≈ 0.0176 µg/mL)	14500 pM	1.61 h	14.4 µL/min/mg	1	
CCc1nc2ncc(C)cn2c1C(=O)NCc1ccc(-c2nc3n(n2)CCC(C)(C)C3)cc1 [Compound 144]	0.05 µM (≈ 0.0222 µg/mL)	12600 pM	> 3 h	< 7.7 µL/min/mg	1	
CCc1cnc2nc(CC)c(C(=O)NCc3ccc(-c4cn5c(n4)C[C@H](C(F)(F)F)CC5)cc3)n2c1 [Compound 151]	0.054 µM (≈ 0.0268 µg/mL)	18200 pM	0.37 h	62.5 µL/min/mg	1	half-life at 1 µM [2, 7]: 0.0717 h; microsomal CLint at 1 µM [2, 8]: 326 µL/min/mg
CCc1cnc2nc(CC)c(C(=O)NCc3ccc(-c4cn5c(n4)C[C@@H](C(F)(F)F)CC5)cc3)n2c1 [Compound 152]	0.088 µM (≈ 0.0437 µg/mL)	23400 pM	0.178 h	129 µL/min/mg	1	half-life at 1 µM [2, 7]: < 0.0667 h; microsomal CLint at 1 µM [2, 8]: > 347 µL/min/mg
CCc1nc2n(c1C(=O)NCc1ccc(-c3cc4n(n3)CCC(C(F)(F)F)C4)cc1)CCCC2 (centres unmarked) [Compound 179]	0.0097 µM (≈ 0.00457 µg/mL)	3310 pM	0.432 h	53.5 µL/min/mg	1	
CCc1nc2ncccn2c1C(=O)NCc1ccc(-c2nc3n(n2)CC[C@@H](C2CC2)C3)cc1 [Compound 183]	0.48 µM (≈ 0.212 µg/mL)	646000 pM	2.28 h	10.1 µL/min/mg	1	
CCc1nc2ncccn2c1C(=O)NCc1ccc(-c2nc3n(n2)CC[C@H](C2CC2)C3)cc1 [Compound 184]	0.43 µM (≈ 0.19 µg/mL)	166000 pM	> 3 h	< 7.7 µL/min/mg	1	
CCc1nc2ncc(NC(=O)OC(C)(C)C)cn2c1C(=O)NCc1ccc(-c2nc3n(n2)CCC(C(F)(F)F)C3)cc1 (centres unmarked) [Compound 194]						Bacterial activity pMIC50 [1]: 7.43; MIC90 [1]: 0.1 µM (≈ 0.0585 µg/mL); Metabolic Stability (liver microsome intrinsic clearance) Clearance (human, μl/min./mg protein) ([2]; human liver microsomes): <7.7 μl/min./mg protein; Metabolic Stability Half life (human, min.) ([2]; human liver microsomes): >3 h; Metabolic Stability (liver microsome intrinsic clearance) Clearance (mouse, μl/min./mg protein) ([2]; mouse liver microsomes): <7.7 μl/min./mg protein; Metabolic Stability Half life (mouse, min.) ([2]; mouse liver microsomes): >3 h; GeneTox AmesIIb Score [3]: 1
CCc1nc2nc(C)c(N(Cc3ccc(OC)cc3OC)C(=O)OC(C)(C)C)cn2c1C(=O)NCc1ccc(-c2nc3n(n2)CC[C@H](C(F)(F)F)C3)cc1 [Compound 196]						Bacterial activity pMIC50 [1]: 7.56; MIC90 [1]: 0.067 µM (≈ 0.0502 µg/mL); Metabolic Stability (liver microsome intrinsic clearance) Clearance (mouse, μl/min./mg protein) ([2]; mouse liver microsomes): <7.7 μl/min./mg protein; Metabolic Stability Half life (mouse, min.) ([2]; mouse liver microsomes): >3 h; GeneTox AmesIIb Score [3]: 1
